Laboratory results from PMC9126943, “ADAMTS4-specific MR probe to assess aortic aneurysms in vivo using synthetic peptide libraries” (Nature Communications, 2022).
Values joined by “and” are separate entries in the source; they are usually repeats but may differ in a detail not shown here. Equal entries are not always repeated. Where a SMILES comes first, the peptide text is derived from it. Bridges are numbered along the chain shown (N, C = ends). The star is where a group is joined. DOTA = O=C(O)CN1CCN(CC(=O)O)CCN(CC(=O)*)CCN(CC(=O)O)CC1

Columns and labels:
[1] = molecular target: T1, ADAMTS4 in the aneurysmal aortic wall of ApoE−/− mice (Mus musculus, UniProt Q8BNJ2); assay: In vivo MRI, longitudinal study (1 week after aneurysm induction); details: longitudinal group, 1 week after AngII, n = 12; one line per mouse
T1 construct: from tissue
T1 sequence (Q8BNJ2 209-833): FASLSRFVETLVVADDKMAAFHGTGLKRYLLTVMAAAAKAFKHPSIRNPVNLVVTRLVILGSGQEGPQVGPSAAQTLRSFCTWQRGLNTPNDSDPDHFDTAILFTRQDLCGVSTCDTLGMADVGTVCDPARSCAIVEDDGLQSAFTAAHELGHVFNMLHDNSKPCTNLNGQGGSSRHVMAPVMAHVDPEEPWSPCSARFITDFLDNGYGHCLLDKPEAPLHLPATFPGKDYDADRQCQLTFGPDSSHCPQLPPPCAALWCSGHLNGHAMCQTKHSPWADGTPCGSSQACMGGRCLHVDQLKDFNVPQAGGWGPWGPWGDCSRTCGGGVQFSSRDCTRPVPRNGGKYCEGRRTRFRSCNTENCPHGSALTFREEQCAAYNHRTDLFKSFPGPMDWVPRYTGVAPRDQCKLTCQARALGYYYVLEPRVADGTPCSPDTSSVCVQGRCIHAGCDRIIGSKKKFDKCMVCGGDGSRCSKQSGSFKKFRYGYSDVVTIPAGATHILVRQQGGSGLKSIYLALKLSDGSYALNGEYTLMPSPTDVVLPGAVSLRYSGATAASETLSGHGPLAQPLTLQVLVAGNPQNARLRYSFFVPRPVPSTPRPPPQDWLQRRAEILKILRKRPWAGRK
Experimental: The longitudinal study includes an MR imaging session 1 week after aneurysm induction (n = 12) with the administration of the ADAMTS4-specific probe. Animals were then followed up for 4 weeks to evaluate the potential of the probes for the prediction of aneurysm progression. After 4 weeks, mice were sacrificed, and aortas excised.
MR imaging was performed using a clinical 3 T Siemens system (Biograph, Siemens Healthcare Solutions, Erlangen, Germany). The system was equipped with a 4-channel receive-coil array for mouse body applications (Mouse Heart Array, P-H04LE-030, Version 1, Rapid Biomedical, Germany). Following anesthesia injection, the animals were positioned in a prone position, and body temperature (37 °C) was monitored using an MR-compatible heating system (Model 1025, SA Instruments Inc, Stony Brook, NY) to avoid rapid cooling. […]
(§1) Analysis of resulting MR images was performed using OsiriX (version 7.1, OsiriX Foundation, Bernex, Switzerland). […] In order to assess the signal intensities, regions of interest (ROIs) were measured as areas of signal enhancement, which were co-localized with areas of aneurysmal-aortic tissue. For these areas, the CNR was calculated using the following formula: CNR = (Combined vessel-wall and aneurysmal-aortic-tissue-signal − blood-signal)/standard-deviation-signal (noise). […]

[2] = molecular target: T1, ADAMTS4 in the aneurysmal aortic wall of ApoE−/− mice; assay: In vivo MRI, cross-sectional study (2 and 4 weeks AngII, sham); details: for CNR after administration, individual animals: one line per mouse
Experimental: All procedures and animal maintenance were performed according to the guidelines and regulations of the Federation of Laboratory Animal Science Associations (FELASA) and the local Guidelines and Provisions for Implementation of the Animal Welfare Act. The animal studies were approved by the local authorities (Lageso Berlin.) Mice were obtained from the Research Institute of Experimental Medicine at the Charité Berlin and maintained under barrier conditions, including a dark/light cycle of 12 h, an ambient temperature of 20 °C, and a humidity of 45%. A standard laboratory diet and water were provided ad libitum. For aneurysm induction, male 8-week-old apolipoprotein-E knockout (ApoE^−/−) (B6.129P2-ApoE^tm1Unc/J) mice underwent implantation of osmotic minipumps (Alzet model 2004, Durect Corp). Osmotic minipumps were implanted subcutaneously in the dorsal neck region and continuously delivered angiotensin II (AngII, Merck KGaA, Darmstadt, Germany) (1000 ng/kg/min) for up to 28 days (n = 32). Sham-operated mice (n = 10) served as the control group, receiving saline for 28 days instead of AngII via the osmotic minipumps.
For the cross-sectional study, MR imaging was performed after two and 4 weeks of AngII-infusion (n = 10 per group). […]
MR imaging was performed using a clinical 3 T Siemens system (Biograph, Siemens Healthcare Solutions, Erlangen, Germany). […] Following anesthesia injection, the animals were positioned in a prone position, and body temperature (37 °C) was monitored using an MR-compatible heating system (Model 1025, SA Instruments Inc, Stony Brook, NY) to avoid rapid cooling. […]
as §1

N=C(N)NCCC[C@@H]1NC(=O)[C@H](CCCNC(=N)N)NC(=O)[C@H](CO)NC(=O)[C@@H](N)CSSC[C@@H](C(=O)N[C@@H](CO)C(=O)NCC(=O)NCC(=O)N[C@@H](CO)C(=O)NCC(=O)NCC(=O)N[C@@H](CCCCNC(=O)CN2CCN(CC(=O)O)CCN(CC(=O)O)CCN(CC(=O)O)CC2)C(=O)NCC(N)=O)NC(=O)CNC1=O (Gd complex, metal not drawn) [ADAMTS4-specific probe] (H-CSRRGCSGGSGGK(DOTA)G-NH2; disulfide 1-6)
CNR post administration, individual animals [1]: 10.17 and 7.35 and 11.97 and 12.63 and 7.15 and 7.46 and 7.27 and 8.85 and 11.26 and 15.46 and 7.57 and 11.23 | CNR after administration, individual animals ([2]; 4 weeks AngII (4w)): 13.92 and 11.1 and 12.72 and 12.01 and 12.59 and 22.52 and 20.4 and 10.53 and 14.06 and 16.11 | CNR of the mice analysed by ICP-MS (Figure 7a) ([2]; individual mice, n = 7): 9.44 and 11.51 and 11.44 and 12.92 and 6.96 and 7.76 and 7.00 | CNR after administration, individual animals ([2]; sham (s)): 6.04 and 7.8 and 7.62 and 6.96 and 7.76 and 7 and 7.77 and 7.23 and 7.52
